From patent publication US12594276B2, “Inhibitors of human immunodeficiency virus replication” (ViiV Healthcare UK (No.5) Limited, priority 2024, dated 2026)
Where two headings read alike, the source gives them in different places.

Assays:
[1] = Compound cytotoxicity, XTT-based colorimetric assay; assay type: cell-based; settings: human
How it was run: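 Uninfected MT2 cells were treated with compound under the same protocol as the antiviral assay. Viability was read on day 4 with an XTT colorimetric assay, from which CC50 values were derived.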

[2] = tested on: recombinant NL4-3 virus (nef section replaced with Renilla luciferase gene) in MT-2 cells; assay: HIV cell culture assay (antiviral activity, luciferase readout); assay type: cell-based; settings: Renilla, NL43, MT-2 cells infected for 4-5 days with recombinant NL4-3 Renilla luciferase virus
How it was run: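 The reporter virus was produced by transfecting 293T cells with the NL4-3 nef/Renilla luciferase proviral clone. MT-2 cells were infected for 4–5 days with serial compound dilutions present. Luciferase was read with a live-cell substrate, and EC50 came from the exponential median-effect equation.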

[3] = uninfected MT2 cells, day 4, XTT, read-out: CC50

SMILES	CC50 at 4 days [1, 3]	EC50 [2]	CC50 at 4 days [1]
Cc1cc(C2CCC(F)(F)CC2)nc2nc([C@H](Cc3cc(F)cc(F)c3)NC(=O)Cn3nc(C4CC4)c4c3C[C@@H]3C[C@H]43)n(-c3ccc(Cl)c4c(NS(C)(=O)=O)nn(CCN5CCC(F)CC5)c34)c(=O)c12 (atropisomer, axis not shown; (P)) [Example 277, N-[(1S)-1-[(3P)-3-{4-chloro-1-[2-(4-fluoropiperidin-1-yl)ethyl]-3-methanesulfonamido-1H-indazol-7-yl}-7-(4,4-difluorocyclohexyl)-5-methyl-4-oxo-3H,4H-pyrido[2,3-d]pyrimidin-2-yl]-2-(3,5-difluorophenyl)ethyl]-2-[(2S,4S)-9-cyclopropyl-7,8-diazatricyclo[4.3.0.0^2,^4]nona-1(6),8-dien-7-yl]acetamide]	> 50 nM	0.009 nM	
Cc1cc(C2CCC(F)(F)CC2)nc2nc([C@H](Cc3cc(F)cc(F)c3)NC(=O)Cn3nc(C4CC4)c4c3C[C@@H]3C[C@H]43)n(-c3ccc(Cl)c4c(NS(C)(=O)=O)nn(CCN5CCC(C)(F)CC5)c34)c(=O)c12 (atropisomer, axis not shown; (P)) [Example 278, N-[(1S)-1-[(3P)-3-{4-chloro-1-[2-(4-fluoro-4-methylpiperidin-1-yl)ethyl]-3-methanesulfonamido-1H-indazol-7-yl}-7-(4,4-difluorocyclohexyl)-5-methyl-4-oxo-3H,4H-pyrido[2,3-d]pyrimidin-2-yl]-2-(3,5-difluorophenyl)ethyl]-2-[(2S,4S)-9-cyclopropyl-7,8-diazatricyclo[4.3.0.0^2,^4]nona-1(6),8-dien-7-yl]acetamide]	> 50 nM	0.005 nM	
Cc1cc(C2CCC(F)(F)CC2)nc2nc([C@H](Cc3cc(F)cc(F)c3)NC(=O)Cn3nc(C4CC4)c4c3C[C@@H]3C[C@H]43)n(-c3ccc(Cl)c4c(NS(C)(=O)=O)nn(CCNC5COC5)c34)c(=O)c12 (atropisomer, axis not shown; (P)) [Example 279, N-[(1S)-1-[(3P)-3-(4-chloro-3-methanesulfonamido-1-{2-[(oxetan-3-yl)amino]ethyl}-1H-indazol-7-yl)-7-(4,4-difluorocyclohexyl)-5-methyl-4-oxo-3H,4H-pyrido[2,3-d]pyrimidin-2-yl]-2-(3,5-difluorophenyl)ethyl]-2-[(2S,4S)-9-cyclopropyl-7,8-diazatricyclo[4.3.0.0^2,^4]nona-1(6),8-dien-7-yl]acetamide]	> 50 nM	0.036 nM	
Cc1cc(C2CCC(F)(F)CC2)nc2nc([C@H](Cc3cc(F)cc(F)c3)NC(=O)Cn3nc(C4CC4)c4c3C[C@@H]3C[C@H]43)n(-c3ccc(Cl)c4c(NS(C)(=O)=O)nn(CCN5C[C@@H](F)[C@@H](F)C5)c34)c(=O)c12 (atropisomer, axis not shown; (P)) [Example 281, N-[(1S)-1-[(3P)-3-(4-chloro-1-{2-[(3R,4S)-3,4-difluoropyrrolidin-1-yl]ethyl}-3-methanesulfonamido-1H-indazol-7-yl)-7-(4,4-difluorocyclohexyl)-5-methyl-4-oxo-3H,4H-pyrido[2,3-d]pyrimidin-2-yl]-2-(3,5-difluorophenyl)ethyl]-2-[(2S,4S)-9-cyclopropyl-7,8-diazatricyclo[4.3.0.0^2,^4]nona-1(6),8-dien-7-yl]acetamide]	> 50 nM	0.011 nM	
Cc1cc(C2CCC(F)(F)CC2)nc2nc([C@H](Cc3cc(F)cc(F)c3)NC(=O)Cn3nc(C4CC4)c4c3C[C@@H]3C[C@H]43)n(-c3ccc(Cl)c4c(NS(C)(=O)=O)nn(CCN5CC(F)(F)C5)c34)c(=O)c12 (atropisomer, axis not shown; (P)) [Example 283, N-[(1S)-1-[(3P)-3-{4-chloro-1-[2-(3,3-difluoroazetidin-1-yl)ethyl]-3-methanesulfonamido-1H-indazol-7-yl}-7-(4,4-difluorocyclohexyl)-5-methyl-4-oxo-3H,4H-pyrido[2,3-d]pyrimidin-2-yl]-2-(3,5-difluorophenyl)ethyl]-2-[(2S,4S)-9-cyclopropyl-7,8-diazatricyclo[4.3.0.0^2,^4]nona-1(6),8-dien-7-yl]acetamide]	> 50 nM	0.008 nM	
COCCCNc1cc(C2CCC(F)(F)CC2)nc2nc([C@H](Cc3cc(F)cc(F)c3)NC(=O)Cn3nc(C(F)F)c4c3C(F)(F)[C@@H]3C[C@H]43)n(-c3ccc(Cl)c4c(NS(C)(=O)=O)nn(CCCOC)c34)c(=O)c12 (atropisomer, axis not shown; (P)) [Example 285, N-[(1S)-1-[(3P)-3-[4-chloro-3-methanesulfonamido-1-(3-methoxypropyl)-1H-indazol-7-yl]-7-(4,4-difluorocyclohexyl)-5-[(3-methoxypropyl)amino]-4-oxo-3H,4H-pyrido[2,3-d]pyrimidin-2-yl]-2-(3,5-difluorophenyl)ethyl]-2-[(2S,4R)-9-(difluoromethyl)-5,5-difluoro-7,8-diazatricyclo[4.3.0.0^2,^4]nona-1(6),8-dien-7-yl]acetamide]	> 50 nM	0.009 nM	
CS(=O)(=O)Nc1nn(CCN2C[C@H](F)C[C@H](F)C2)c2c(-n3c([C@H](Cc4cc(F)cc(F)c4)NC(=O)Cn4nc(C5CC5)c5c4C[C@@H]4C[C@H]54)nc4nc(C5CCC(F)(F)CC5)cc(C(F)F)c4c3=O)ccc(Cl)c12 (atropisomer, axis not shown; (P)) [Example 287, N-[(1S)-1-[(3P)-3-(4-chloro-1-{2-[(3R,5S)-3,5-difluoropiperidin-1-yl]ethyl}-3-methanesulfonamido-1H-indazol-7-yl)-7-(4,4-difluorocyclohexyl)-5-(difluoromethyl)-4-oxo-3H,4H-pyrido[2,3-d]pyrimidin-2-yl]-2-(3,5-difluorophenyl)ethyl]-2-[(2S,4S)-9-cyclopropyl-7,8-diazatricyclo[4.3.0.0^2,^4]nona-1(6),8-dien-7-yl]acetamide]	> 50 nM	0.01 nM	
CS(=O)(=O)Nc1nn(CCN2C[C@H]3CC[C@@H](C2)O3)c2c(-n3c([C@H](Cc4cc(F)cc(F)c4)NC(=O)Cn4nc(C5CC5)c5c4C[C@@H]4C[C@H]54)nc4nc(C5CCC(F)(F)CC5)cc(C(F)F)c4c3=O)ccc(Cl)c12 (atropisomer, axis not shown; (P)) [Example 288, N-[(1S)-1-[(3P)-3-(4-chloro-3-methanesulfonamido-1-{2-[(1R,5S)-8-oxa-3-azabicyclo[3.2.1]octan-3-yl]ethyl}-1H-indazol-7-yl)-7-(4,4-difluorocyclohexyl)-5-(difluoromethyl)-4-oxo-3H,4H-pyrido[2,3-d]pyrimidin-2-yl]-2-(3,5-difluorophenyl)ethyl]-2-[(2S,4S)-9-cyclopropyl-7,8-diazatricyclo[4.3.0.0^2,^4]nona-1(6),8-dien-7-yl]acetamide]	> 50 nM	0.008 nM	
CS(=O)(=O)Nc1nn(CCN2[C@@H]3CC[C@H]2COC3)c2c(-n3c([C@H](Cc4cc(F)cc(F)c4)NC(=O)Cn4nc(C5CC5)c5c4C[C@@H]4C[C@H]54)nc4nc(C5CCC(F)(F)CC5)cc(C(F)F)c4c3=O)ccc(Cl)c12 (atropisomer, axis not shown; (P)) [Example 289, N-[(1S)-1-[(3P)-3-(4-chloro-3-methanesulfonamido-1-{2-[(1R,5S)-3-oxa-8-azabicyclo[3.2.1]octan-8-yl]ethyl}-1H-indazol-7-yl)-7-(4,4-difluorocyclohexyl)-5-(difluoromethyl)-4-oxo-3H,4H-pyrido[2,3-d]pyrimidin-2-yl]-2-(3,5-difluorophenyl)ethyl]-2-[(2S,4S)-9-cyclopropyl-7,8-diazatricyclo[4.3.0.0^2,^4]nona-1(6),8-dien-7-yl]acetamide]		0.025 nM	> 50 nM
CC1(F)CCN(CCn2nc(NS(C)(=O)=O)c3c(Cl)ccc(-n4c([C@H](Cc5cc(F)cc(F)c5)NC(=O)Cn5nc(C(F)F)c6c5C(F)(F)[C@@H]5C[C@H]65)nc5nc(C6CCC(F)(F)CC6)cc(C(F)F)c5c4=O)c32)CC1 (atropisomer, axis not shown; (P)) [Example 290, N-[(1S)-1-[(3P)-3-{4-chloro-1-[2-(4-fluoro-4-methylpiperidin-1-yl)ethyl]-3-methanesulfonamido-1H-indazol-7-yl}-7-(4,4-difluorocyclohexyl)-5-(difluoromethyl)-4-oxo-3H,4H-pyrido[2,3-d]pyrimidin-2-yl]-2-(3,5-difluorophenyl)ethyl]-2-[(2S,4R)-9-(difluoromethyl)-5,5-difluoro-7,8-diazatricyclo[4.3.0.0^2,^4]nona-1(6),8-dien-7-yl]acetamide]	> 50 nM	0.023 nM	
CS(=O)(=O)Nc1nn(CCN2C[C@H](F)C[C@H](F)C2)c2c(-n3c([C@H](Cc4cc(F)cc(F)c4)NC(=O)Cn4nc(C(F)F)c5c4C(F)(F)[C@@H]4C[C@H]54)nc4nc(C5CCC(F)(F)CC5)cc(C(F)F)c4c3=O)ccc(Cl)c12 (atropisomer, axis not shown; (P)) [Example 291, N-[(1S)-1-[(3P)-3-(4-chloro-1-{2-[(3R,5S)-3,5-difluoropiperidin-1-yl]ethyl}-3-methanesulfonamido-1H-indazol-7-yl)-7-(4,4-difluorocyclohexyl)-5-(difluoromethyl)-4-oxo-3H,4H-pyrido[2,3-d]pyrimidin-2-yl]-2-(3,5-difluorophenyl)ethyl]-2-[(2S,4R)-9-(difluoromethyl)-5,5-difluoro-7,8-diazatricyclo[4.3.0.0^2,^4]nona-1(6),8-dien-7-yl]acetamide]	> 50 nM	0.012 nM	
